Each molecule was assayed against T1, Recombinant human CETP (Homo sapiens, UniProt P11597) (assay: CETP in vitro assay (fluorometric assay, Roar Biomedical; cholesterol ester transfer from HDL to LDL)). Conditions: recombinant human CETP from CHO cells; 3 hours at 37° C.; fluorescence 485/535 nm; compound concentrations between 1 nM and 30 μM; read-out: IC50 values for inhibition of CETP.
T1 construct: made in house; host or cells: CHO cells (secreted into conditioned medium)
T1 sequence (P11597 18-493): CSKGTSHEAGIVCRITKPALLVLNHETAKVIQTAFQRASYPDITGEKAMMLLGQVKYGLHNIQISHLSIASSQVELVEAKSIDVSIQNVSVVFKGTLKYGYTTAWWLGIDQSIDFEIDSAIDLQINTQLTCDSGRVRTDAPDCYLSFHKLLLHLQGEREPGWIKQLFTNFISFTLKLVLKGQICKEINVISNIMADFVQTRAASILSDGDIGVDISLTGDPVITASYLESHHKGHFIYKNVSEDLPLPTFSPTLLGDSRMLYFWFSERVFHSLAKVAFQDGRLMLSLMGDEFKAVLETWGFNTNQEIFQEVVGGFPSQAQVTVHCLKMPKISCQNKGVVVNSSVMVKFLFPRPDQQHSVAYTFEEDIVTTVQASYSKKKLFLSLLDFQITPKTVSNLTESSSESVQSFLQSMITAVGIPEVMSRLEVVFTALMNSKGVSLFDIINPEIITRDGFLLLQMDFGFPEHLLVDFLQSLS
Assay type: biochemical
Protocol: CETP inhibitory activity of compounds of the present invention can be determined in a fluorometric assay purchased from Roar Biomedical, Inc. (New York, N.Y., USA). […] Recombinant human CETP was partially purified from medium conditioned by CETP expressing CHO cells. In a 384 well format 2.5 μl of compound solution in DMSO was combined with 2 μl of donor solution, 2 μl of acceptor solution and 0.8 μl of recombinant human CETP solution in a total volume of 100 μl with assay buffer and incubated for 3 hours at 37° C. The fluorescence intensity was measured at excitation wavelength of 485 nm and emission wavelength of 535 nm. IC50 values are calculated from dose effect curves from compound concentrations between 1 nM and 30 μM.

Structure (SMILES)	IC50 [nM]
CC1(C)C[C@H](O)c2c(nc(C3CCOCC3)c3c2C2(CCCC2)O[C@@H]3c2ccc(S(F)(F)(F)(F)F)cc2)[C@@H]1O [4(6), (3′R,6′R,9′S)-7′,7′-dimethyl-4′-(tetrahydro-2H-pyran-4-yl)-3′-(4-(pentafluorosulfanyl)phenyl)-6′,7′,8′,9′-tetrahydro-3′H-spiro[cyclopentane-1,1′-furo[3,4-c]quinoline]-6′,9′-diol]	19
CC(C)c1nc2c(c3c1[C@@H](c1ccc(S(F)(F)(F)(F)F)cc1)OC31CCOCC1)[C@@H](O)CC(C)(C)[C@H]2O [4(7), (3R,6R,9S)-4-isopropyl-7,7-dimethyl-3-(4-(pentafluorosulfanyl)phenyl)-2′,3′,5′,6,6′,7,8,9-octahydro-3H-spiro[furo[3,4-c]quinoline-1,4′-pyran]-6,9-diol]	12
CC(C)c1nc2c(c3c1[C@@H](c1ccc(S(F)(F)(F)(F)F)cc1)OC31CCOCC1)[C@@H](O)CC1(CCC1)[C@H]2O [4(8), (3R,6R,9S)-4-isopropyl-7,7-(propan-1,3-diyl)-3-(4-(pentafluorosulfanyl)phenyl)-2′,3′,5′,6,6′,7,8,9-octahydro-3H-spiro[furo[3,4-c]quinoline-1,4′-pyran]-6,9-diol]	14
CC1(C)C[C@H](O)c2c(nc(C3CCOCC3)c3c2C2(CCOCC2)O[C@@H]3c2ccc(C(F)(F)F)c(C#N)c2)[C@@H]1O [4(9), 5-((3R,6R,9S)-6,9-dihydroxy-7,7-dimethyl-4-(tetrahydro-2H-pyran-4-yl)-2′,3′,5′,6,6′,7,8,9-octahydro-3H-spiro[furo[3,4-c]quinoline-1,4′-pyran]-3-yl)-2-(trifluoromethyl)benzonitrile]	147
CC(C)c1nc2c(c3c1[C@@H](c1ccc(C(F)(F)F)c(C#N)c1)OC31CCOCC1)[C@@H](O)CC1(CCC1)[C@H]2O [4(10), 5-((3R,6R,9S)-6,9-dihydroxy-4-isopropyl-7,7-(propan-1,3-diyl)-2′,3′,5′,6,6′,7,8,9-octahydro-3H-spiro[furo[3,4-c]quinoline-1,4′-pyran]-3-yl)-2-(trifluoromethyl)benzonitrile]	15
CC1(C)C[C@H](O)c2c(nc(C3CCOCC3)c3c2C2(CCOCC2)O[C@@H]3c2ccc(C(F)(F)F)cc2)[C@@H]1O [4(11), (3R,6R,9S)-7,7-dimethyl-4-(tetrahydro-2H-pyran-4-yl)-3-(4-(trifluoromethyl)phenyl)-2′,3′,5′,6,6′,7,8,9-octahydro-3H-spiro[furo[3,4-c]quinoline-1,4′-pyran]-6,9-diol]	255
CC1(C)C[C@H](O)c2c(nc(C3CCOCC3)c3c2C2(CCOCC2)O[C@@H]3c2ccc(S(F)(F)(F)(F)F)cc2)[C@@H]1O [4(12), (3R,6R,9S)-7,7-dimethyl-4-(tetrahydro-2H-pyran-4-yl)-3-(4-(pentafluorosulfanyl)phenyl)-2′,3′,5′,6,6′,7,8,9-octahydro-3H-spiro[furo[3,4-c]quinoline-1,4′-pyran]-6,9-diol]	70
CC(C)(C)c1ccc([C@H]2OC3(CCOCC3)c3c2c(C2CCOCC2)nc2c3[C@@H](O)CC(C)(C)[C@H]2O)cc1 [4(13), (3R,6R,9S)-3-(4-tert-butylphenyl)-7,7-dimethyl-4-(tetrahydro-2H-pyran-4-yl)-2′,3′,5′,6,6′,7,8,9-octahydro-3H-spiro[furo[3,4-c]quinoline-1,4′-pyran]-6,9-diol]	51
N#Cc1cc([C@H]2OC3(CCOCC3)c3c2c(C2CCOCC2)nc2c3[C@@H](O)CC3(CCC3)[C@H]2O)ccc1C(F)(F)F [4(14), 5-((3R,6R,9S)-6,9-dihydroxy-7,7-(propan-1,3-diyl)-4-(tetrahydro-2H-pyran-4-yl)-2′,3′,5′,6,6′,7,8,9-octahydro-3H-spiro[furo[3,4-c]quinoline-1,4′-pyran]-3-yl)-2-(trifluoromethyl)benzonitrile]	65
CC(C)c1nc2c(c3c1[C@@H](c1ccc(C(F)(F)F)c(C#N)c1)OC31CCOCC1)[C@@H](O)CC(C)(C)[C@H]2O [4(15), 5-((3R,6R,9S)-6,9-dihydroxy-4-isopropyl-7,7-dimethyl-2′,3′,5′,6,6′,7,8,9-octahydro-3H-spiro[furo[3,4-c]quinoline-1,4′-pyran]-3-yl)-2-(trifluoromethyl)benzonitrile]	27
O[C@H]1CC2(CCC2)[C@@H](O)c2nc(C3CCOCC3)c3c(c21)C1(CCOCC1)O[C@@H]3c1ccc(C(F)(F)F)cc1 [4(16), (3R,6R,9S)-7,7-(propan-1,3-diyl)-4-(tetrahydro-2H-pyran-4-yl)-3-(4-(trifluoromethyl)phenyl)-2′,3′,5′,6,6′,7,8,9-octahydro-3H-spiro[furo[3,4-c]quinoline-1,4′-pyran]-6,9-diol]	44
CC(C)c1nc2c(c3c1[C@@H](c1ccc(C(F)(F)F)cc1)OC31CCOCC1)[C@@H](O)CC1(CCC1)[C@H]2O [5(1), (3R,6R,9S)-4-isopropyl-7,7-(propan-1,3-diyl)-3-(4-(trifluoromethyl)phenyl)-2′,3′,5′,6,6′,7,8,9-octahydro-3H-spiro[furo[3,4-c]quinoline-1,4′-pyran]-6,9-diol]	78
CC(C)c1nc2c(c3c1[C@@H](c1ncc(C(F)(F)F)cc1F)OC31CCOCC1)[C@@H](O)CC(C)(C)C2 [5(2), (3S,9S)-3-(3-fluoro-5-(trifluoromethyl)pyridin-2-yl)-4-isopropyl-7,7-dimethyl-2′,3′,5′,6,6′,7,8,9-octahydro-3H-spiro[furo[3,4-c]quinoline-1,4′-pyran]-9-ol]	206

Second part, the molecule after the results:

IC50 [nM]	Structure (SMILES)
2700	CC(C)c1nc2c(c3c1[C@@H](c1ccc(C(F)(F)F)cn1)OC31CCOCC1)[C@@H](O)CC(C)(C)[C@@H]2O [5(3), (3S,6S,9S)-4-isopropyl-7,7-dimethyl-3-(5-(trifluoromethyl)pyridin-2-yl)-2′,3′,5′,6,6′,7,8,9-octahydro-3H-spiro[furo[3,4-c]quinoline-1,4′-pyran]-6,9-diol]
183	CC(C)c1nc2c(c3c1[C@@H](c1ccc(C(F)(F)F)cn1)OC31CCOCC1)[C@@H](O)CC(C)(C)[C@H]2O [5(4), (3S,6R,9S)-4-isopropyl-7,7-dimethyl-3-(5-(trifluoromethyl)pyridin-2-yl)-2′,3′,5′,6,6′,7,8,9-octahydro-3H-spiro[furo[3,4-c]quinoline-1,4′-pyran]-6,9-diol]
418	CC(C)c1nc2c(c3c1[C@@H](c1ccc(C(F)(F)F)nc1)OC31CCOCC1)[C@@H](O)CC(C)(C)[C@H]2O [5(5), (3R,6R,9S)-4-isopropyl-7,7-dimethyl-3-(6-(trifluoromethyl)pyridin-3-yl)-2′,3′,5′,6,6′,7,8,9-octahydro-3H-spiro[furo[3,4-c]quinoline-1,4′-pyran]-6,9-diol]
13	CC(C)c1nc2c(c3c1[C@@H](c1ccc(C(F)(F)F)c(F)c1)OC31CCOCC1)[C@@H](O)CC(C)(C)[C@H]2O [5(6), (3R,6R,9S)-3-(3-fluoro-4-(trifluoromethyl)phenyl)-4-isopropyl-7,7-dimethyl-2′,3′,5′,6,6′,7,8,9-octahydro-3H-spiro[furo[3,4-c]quinoline-1,4′-pyran]-6,9-diol]
4120	CC(C)c1nc2c(c3c1[C@@H](c1ccc(C(F)(F)F)nc1)OC31CCOCC1)[C@@H](O)CC(C)(C)[C@@H]2O [5(7), (3R,6S,9S)-4-isopropyl-7,7-dimethyl-3-(6-(trifluoromethyl)pyridin-3-yl)-2′,3′,5′,6,6′,7,8,9-octahydro-3H-spiro[furo[3,4-c]quinoline-1,4′-pyran]-6,9-diol]
42	CC(C)c1nc2c(c3c1[C@@H](c1ccc(C(F)(F)F)cn1)OC31CCOCC1)[C@@H](O)CC1(CCC1)[C@H]2O [5(8), (3S,6R,9S)-4-isopropyl-7,7-(propan-1,3-diyl)-3-(5-(trifluoromethyl)pyridin-2-yl)-2′,3′,5′,6,6′,7,8,9-octahydro-3H-spiro[furo[3,4-c]quinoline-1,4′-pyran]-6,9-diol]
1220	O[C@H]1CC2(CCC2)[C@@H](O)c2nc(C3CCOCC3)c3c(c21)C1(CCOCC1)O[C@@H]3c1ccc(C(F)(F)F)cn1 [6(1), (3S,6R,9S)-7,7-(propan-1,3-diyl)-4-(tetrahydro-2H-pyran-4-yl)-3-(5-(trifluoromethyl)pyridin-2-yl)-2′,3′,5′,6,6′,7,8,9-octahydro-3H-spiro[furo[3,4-c]quinoline-1,4′-pyran]-6,9-diol]
1540	CC1(C)C[C@H](O)c2c(nc(C3CCOCC3)c3c2C2(CCOCC2)O[C@@H]3c2ccc(C(F)(F)F)nc2)[C@@H]1O [6(2), (3R,6R,9S)-7,7-dimethyl-4-(tetrahydro-2H-pyran-4-yl)-3-(6-(trifluoromethyl)pyridin-3-yl)-2′,3′,5′,6,6′,7,8,9-octahydro-3H-spiro[furo[3,4-c]quinoline-1,4′-pyran]-6,9-diol]
13	CC(C)c1nc2c(c3c1[C@@H](c1ccc(C(F)(F)F)nc1)OC31CCOCC1)[C@@H](O)CC1(CCC1)[C@H]2O [Example 5, (3R,6R,9S)-4-isopropyl-7,7-(propan-1,3-diyl)-3-(6-(trifluoromethyl)pyridin-3-yl)-2′,3′,5′,6,6′,7,8,9-octahydro-3H-spiro[furo[3,4-c]quinoline-1,4′-pyran]-6,9-diol]

From patent US9029544B2, “Tricyclic pyridine derivatives, medicaments containing such compounds, their use and process for their preparation” (Boehringer Ingelheim International GmbH, priority 2010, dated 2015)
